Values after ≈ are worked out from the molar mass of the structure shown. Like-named read-outs stand apart in the source and are kept apart here.
Experiments:
glioblastoma U87 cells = experiment: MTT cell viability assay; format: cell-based, human; conditions: 48 hours of incubation
Experimental: (§1) The glioblastoma cell lines LN-229 and U87 and the reference human normal skin fibroblast BJ were obtained from the American Type Culture Collection (ATCC). Cells were grown as monolayers when cultured in cell culture flasks and cultured in Dulbecco's Modified Eagle Medium (DMEM) – LN-229 and Eagle's Minimum Essential Medium (EMEM) – U87 and BJ, supplemented with 10% (v/v) fetal bovine serum, penicillin (10 000 U mL^−1), streptomycin (10 mg mL^−1) and amphotericin B (250 μg mL^−1). The cells were incubated at 37 °C, 5% CO2 atmosphere. The cells were maintained in the logarithmic growth phase by regular passage at 80% confluence.
(§2) The cytotoxicity of the tested compounds was evaluated against both human glioblastoma LN-229 and U-87 as well as normal BJ cell lines. The cells were plated in 96-well culture plates (2 × 10^4 well) and after 24 h incubation the cells were treated with the tested compounds in the concentration range 1–50 μM. The cells were cultured for the next 48 h. The cytotoxicity of the compounds was evaluated using the MTT colorimetric method as previously described.[28,29] IC50 values were determined using the AAT Bioquest IC50 calculator as the concentration of compounds capable of reducing cell viability by 50%. The experiment was performed in triplicate for each concentration. To examine the cytotoxic effect of compounds on cell morphology, cells were examined under an inverted phase contrast microscope Nikon Eclipse Ti with NIS Element software (Tokyo, Japan).

[1] = tested on: glioblastoma LN-229 cells; experiment: MTT cell viability assay; format: cell-based, human; conditions: 48 hours of incubation
Experimental: as §1, §2

[2] = tested on: normal skin fibroblast BJ cells; experiment: MTT cell viability assay; format: cell-based, human; conditions: BJ normal fibroblasts, 48 hours of incubation
Experimental: as §1, §2

E. coli ATCC 10530 = experiment: Diffusion-well method, inhibition zones; format: cell-based, Escherichia coli; conditions: 500 µg/mL, wells 10 mm
Experimental: (§3) The antibacterial activity of tested samples was assessed against both gram-positive bacteria (Staphylococcus aureus ATCC 25923, Staphylococcus aureus ATCC 6538, Staphylococcus epidermidis ATCC 12228, Enterococcus faecalis ATCC 29212, Listeria monocytogenes ATCC 19115, Bacillus subtilis ATCC 6633, Bacillus cereus ATCC 10876) and gram-negative bacteria (Escherichia coli ATCC 10530, Salmonella typhimurium ATCC 14028). Antibacterial properties were evaluated using both the dilution method (employing DMSO and 96-well plates) and the diffusion-well method (using Mueller Hinton Agar, Merck, Germany).
(§4) 24 hour bacterial cultures with a density of 1–2 × 10^8 CFU mL^−1 were plated (0.1 mL) on Mueller–Hinton Agar (Merck, Germany). Subsequently, wells with a diameter of 10 mm were cut out from and filled with 100 μL of the tested compound at a concentration of 10–500 μg mL^−1 (diluted in DMSO). After an 18-hour incubation at either 30 °C (for Bacillus ssp.) or 37 °C (for other tested microorganisms), the inhibition zones around the wells were measured, and the results were expressed in millimetres (Table S9 ^†).

B. cereus ŁOCK 0807 = experiment: Diffusion-well method, inhibition zones; format: cell-based, Bacillus cereus; conditions: 500 µg/mL, wells 10 mm
[3] = tested on: L. monocytogenes ATCC 19115; experiment: Diffusion-well method, inhibition zones; format: cell-based, Listeria monocytogenes; conditions: 500 µg/mL, wells 10 mm
Experimental: as §3, §4

S. aureus ATCC 6538 = experiment: Diffusion-well method, inhibition zones; format: cell-based, Staphylococcus aureus; conditions: 500 µg/mL, wells 10 mm
Experimental: as §3, §4

S. aureus ATCC 25923 = experiment: Diffusion-well method, inhibition zones; format: cell-based, Staphylococcus aureus; conditions: 500 µg/mL, wells 10 mm
Experimental: as §3, §4

[4] = tested on: Bacillus subtilis ATCC 6633; experiment: MIC determination; format: cell-based
Experimental: as §3
(§5) The minimum inhibitory concentrations (MICs) of the tested samples were evaluated against a panel of reference microorganisms obtained from the American Type Culture Collection (ATCC), including Gram-negative bacteria (Escherichia coli ATCC 10530, Salmonella typhimurium ATCC 14028), and Gram-positive bacteria (Staphylococcus aureus ATCC 25923, Staphylococcus aureus ATCC 6538, Staphylococcus epidermidis ATCC 12228, Enterococcus faecalis ATCC 29212, Listeria monocytogenes ATCC 19115, Bacillus subtilis ATCC 6633), and one strain (Bacillus cereus ŁOCK 0807) obtained from the Pure Culture of Industrial Microorganisms of the Institute of Fermentation Technology and Microbiology ŁOCK 105 (Łódź, Poland).
(§6) The microorganism cultures with a density of 1.5 × 10^8 CFU mL^−1 (corresponding to a McFarland standard of 0.5) were plated on Mueller–Hinton Agar (Merck, Germany) following the procedures recommended by the European Committee on Antimicrobial Susceptibility Testing (EUCAST).[47] Wells measuring 10 mm in diameter were cut into the medium. The tested compounds were dissolved in a DMSO solution, which was recommended due to their chemical structures. Subsequently, 100 μL of prepared solutions containing the tested compounds at concentrations ranging from x μg mL^−1 to x μg mL^−1 were added to each well. The plates were incubated at 30 °C (for Bacillus subtilis and Bacillus cereus) or 37 °C (for other bacteria) for 18 hours. After incubation, the minimum inhibitory concentration (MIC value) was determined (the lowest concentration of the tested compounds that prevents bacterial growth) and expressed in μg mL^−1. The experiment was conducted in three independent replicates. Ciprofloxacin (Sigma Aldrich, Saint Louis, MO, USA) was used as a reference antimicrobial agent against Gram-negative bacteria, while vancomycin (Sigma Aldrich, Saint Louis, MO, USA) was used as a reference antimicrobial agent against Gram-positive bacteria.

[5] = tested on: Staphylococcus epidermidis ATCC 12228; experiment: MIC determination; format: cell-based; conditions: S. epidermidis ATCC 12228, 18 h
Experimental: as §3, §5, §6

[6] = tested on: Bacillus cereus ŁOCK 0807; experiment: MIC determination; format: cell-based; conditions: 18 h
Experimental: as §3, §5, §6

[7] = tested on: Staphylococcus aureus ATCC 6538; experiment: MIC determination; format: cell-based; conditions: S. aureus ATCC 6538, 18 h
Experimental: as §3, §5, §6

[8] = tested on: Salmonella typhimurium ATCC 14028; experiment: MIC determination; format: cell-based; conditions: 18 h
Experimental: as §3, §5, §6

[9] = tested on: Listeria monocytogenes ATCC 19115; experiment: MIC determination; format: cell-based; conditions: Listeria monocytogenes ATCC 19115, 18 h
Experimental: as §3, §5, §6

[10] = tested on: Enterococcus faecalis ATCC 29212; experiment: MIC determination; format: cell-based; conditions: E. faecalis ATCC 29212, 18 h
Experimental: as §3, §5, §6

[11] = tested on: Escherichia coli ATCC 10530; experiment: MIC determination; format: cell-based; conditions: Escherichia coli ATCC 10530; 18 h
Experimental: as §3, §5, §6

[12] = tested on: Staphylococcus aureus ATCC 25923; experiment: MIC determination; format: cell-based; conditions: S. aureus ATCC 25923, 18 h
Experimental: as §3, §5, §6

E. faecalis ATCC 29212 = experiment: Diffusion-well method, inhibition zones; format: cell-based, Enterococcus faecalis; conditions: 500 µg/mL, wells 10 mm
Experimental: as §3, §4

[13] = Time-dependent UV-vis solution stability in DMSO; format: physicochemical; conditions: 0 min to 48 h, room temperature
From the text: The stability of metal complexes is a crucial property that provides insight into their interactions with biological molecules, as it directly impacts their reactivity, bioavailability, and effectiveness in therapeutic applications. Additionally, the solubility of these complexes in dimethyl sulfoxide (DMSO) is of considerable importance, as solubility data are essential for optimizing storage conditions and ensuring compatibility with biological assays.[39] DMSO, a widely used solvent in drug discovery, serves as a medium that supports the stability and bioavailability of complexes under assay conditions, which is critical for maintaining the integrity of analytical protocols and enabling accurate assessments of biological activity. For the obtained complexes, the time-dependent UV-vis investigations in DMSO (Fig. 5 and S9 ^†) were carried out from 0 min to 48 h (0 min, 30 min, 1 h, 2 h, 3 h, 24 h, 48 h).
The sample solutions (50 μL (1.0 × 10^−3 M)) of the complexes were prepared in DMSO (Sigma Aldrich, ≥99.9%). The absorption spectra of the complexes were measured with increasing time (0 min, 30 min, 60 min, 2 h, 3 h, 24 h, 48 h) at room temperature. All measurements were performed on the Shimadzu UV-2401PC.

B. subtilis ATCC 6633 = experiment: Diffusion-well method, inhibition zones; format: cell-based, Bacillus subtilis; conditions: 500 µg/mL, wells 10 mm
Experimental: as §3, §4

Row | Structure (SMILES) | IC50 (glioblastoma U87 cells) | IC50 [1] | IC50 [2] | Inhibition zone (E. coli ATCC 10530) | Inhibition zone (S. aureus ATCC 6538) | Inhibition zone (S. aureus ATCC 25923) | MIC ([4]; 18 h) | MIC [5] | MIC ([6]; Bacillus cereus ŁOCK 0807) | MIC [7] | MIC ([8]; S. typhimurium ATCC 14028) | MIC [9] | MIC [10] | MIC [11] | MIC [12] | hypochromic effect [13] | other results
1 | N.N.[Cl][Pt][Cl] [Cisplatin, reference compound] | 39.6 ± 1.13 µM | 29.09 ± 0.23 µM | > 50 µM |  |  |  |  |  |  |  |  |  |  |  |  |  | 
2 | NC(=NN=Cc1ccc([N+](=O)[O-])cc1)c1cccc(N2CCCC2)n1.[Cd+2].[Cl-].[Cl-] [Complex 9, CdL4Cl2] | > 50 µM | 45.3 ± 2.18 µM | 1.05 ± 0.32 µM | 20 mm | 13 mm | 16 mm | > 500 µg/mL | > 500 µg/mL | 250 µg/mL | 250 µg/mL | > 500 µg/mL | 500 µg/mL | 10 µg/mL | 10 µg/mL | 10 µg/mL |  | Inhibition zone (B. cereus ŁOCK 0807): 13 mm; Inhibition zone [3]: 12 mm; Inhibition zone (E. faecalis ATCC 29212): 14 mm
3 | NC(=NN=Cc1ccccc1)c1cc(Cl)ccn1.[Cd+2].[Cl-].[Cl-] [Complex 8, CdL3Cl2] | 10.9 ± 3.8 µM | > 50 µM | 25.8 ± 4.48 µM | 20 mm |  | 15 mm | > 500 µg/mL | > 500 µg/mL | > 500 µg/mL | 500 µg/mL | > 500 µg/mL | > 500 µg/mL | > 500 µg/mL | 10 µg/mL | 100 µg/mL | 36.3% | shift of peak maxima [13]: 4 nm
4 | NC(=NN=Cc1ccccc1)c1cc(Cl)ccn1.O=[N+]([O-])[O-].[Ag+] [Complex 3, AgL3NO3] | 32 ± 7.08 µM | > 50 µM | > 50 µM | 20 mm | 15 mm | 15 mm | 10 µg/mL | 250 µg/mL | 50 µg/mL | 50 µg/mL | 500 µg/mL | 10 µg/mL | 50 µg/mL | 10 µg/mL | 100 µg/mL | 2.31% | Inhibition zone (B. cereus ŁOCK 0807): 18 mm; Inhibition zone [3]: 19 mm; Inhibition zone (B. subtilis ATCC 6633): 17 mm; Inhibition zone (E. faecalis ATCC 29212): 13 mm
5 | CN[C@H](CC(C)C)C(=O)N[C@H]1C(=O)N[C@@H](CC(N)=O)C(=O)N[C@H]2C(=O)N[C@H]3C(=O)N[C@H](C(=O)N[C@H](C(=O)O)c4cc(O)cc(O)c4-c4cc3ccc4O)[C@H](O)c3ccc(c(Cl)c3)Oc3cc2cc(c3O[C@@H]2O[C@H](CO)[C@@H](O)[C@H](O)[C@H]2O[C@H]2C[C@](C)(N)[C@H](O)[C@H](C)O2)Oc2ccc(cc2Cl)[C@H]1O [Vancomycin, vancomycin, reference compound] |  |  |  |  |  |  |  |  |  |  |  |  |  |  |  |  | MIC ([4]; ATCC6633, 18 h, read-out: MIC): 1 µg/mL (≈ 0.69 µM); MIC ([5]; Staphylococcus epidermidis, ATCC12228, read-out: MIC): 1 µg/mL (≈ 0.69 µM); MIC ([6]; Bacillus cereus): 1 µg/mL (≈ 0.69 µM); MIC ([7]; Staphylococcus aureus, ATCC6538, read-out: MIC): 1 µg/mL (≈ 0.69 µM); MIC ([9]; ATCC19115, read-out: MIC): 2 µg/mL (≈ 1.38 µM); MIC ([10]; Enterococcus faecalis, ATCC29212, read-out: MIC): 1 µg/mL (≈ 0.69 µM); MIC ([12]; Staphylococcus aureus, ATCC25923, read-out: MIC): 1 µg/mL (≈ 0.69 µM)
6 | N/C(=N\N=C\c1ccc([N+](=O)[O-])cc1)c1cccc(Cl)n1 [Complex L2, 6-chloro-N′-(4-nitrobenzylidene) picolinohydrazonamide] |  |  |  |  |  |  |  |  |  |  |  |  |  |  |  |  | IC50 (glioblastoma U87 cells; Homo sapiens, U-87 MG): > 50 µM; IC50 ([1]; Homo sapiens): 40.8 ± 6.12 µM; IC50 ([2]; Homo sapiens): 35.5 ± 4.33 µM
7 | NC(=NN=Cc1ccc([N+](=O)[O-])cc1)c1cccc(Cl)n1.NC(=NN=Cc1ccc([N+](=O)[O-])cc1)c1cccc(Cl)n1.[Cd+2].[Cl-].[Cl-] [Complex 7, Cd (L2)2Cl2] | > 50 µM | > 50 µM | 41.7 ± 4.18 µM | 12 mm | 13 mm | 15 mm | > 500 µg/mL | > 500 µg/mL | > 500 µg/mL | 500 µg/mL | > 500 µg/mL | > 500 µg/mL | > 500 µg/mL | 500 µg/mL | 100 µg/mL | 27.7% | shift of peak maxima [13]: 15 nm
8 | O=C(O)c1cn(C2CC2)c2cc(N3CCNCC3)c(F)cc2c1=O [Ciprofloxacin, reference compound] |  |  |  |  |  |  |  |  |  |  |  |  |  | 1 µg/mL (≈ 3.02 µM) |  |  | MIC ([8]; Salmonella enterica): 1 µg/mL (≈ 3.02 µM)
9 | NC(=NN=Cc1ccccc1)c1cc(Cl)ccn1 [Complex L3, N′-(benzylidene)-4-chloropicolinohydrazonamide] |  |  |  |  |  |  |  |  |  |  |  |  |  |  |  |  | IC50 (glioblastoma U87 cells; Homo sapiens, U-87 MG): > 50 µM; IC50 ([1]; Homo sapiens): > 50 µM; IC50 ([2]; Homo sapiens): > 50 µM

From paper PMC12150283, “Synthesis of new Ag(I) and Cd(II) hydrozanomide-based complexes with antibacterial and anticancer properties” (RSC Advances, 2025)
